The values that follow come from ChEMBL document CHEMBL3044836, “Synthesis, antimicrobial and cytotoxic activities of novel 4-trifluoromethyl-(1,2,3)-thiadiazolo-5-carboxylic acid hydrazide Schiffs bases” (Med Chem Res, 2013).

What all share (type): functional
In one experiment the test system is MDA-MB-231. Put plainly: Cytotoxicity against Homo sapiens (human) MDA-MB-231 cells assessed as cell viability at 10 uM after 48 hr by MTT assay relative to control. Particulars: MDA-MB-231, 48 h, read-out: Activity. On the technique in general: Tetrazolium assays rely on reduction of a dye to a coloured formazan, in cell work by metabolically active cells.
The test system of another experiment is MCF7. Put plainly: Cytotoxicity against Homo sapiens (human) MCF7 cells assessed as cell viability at 10 uM after 48 hr by MTT assay relative to control. Particulars: MCF7, 48 h, read-out: Activity.
Experiment [1] concerns Saccharomyces cerevisiae. Put plainly: Antifungal activity against Saccharomyces cerevisiae MTCC 36 assessed as growth inhibition at 150 ug/ml after 48 hr by agar cup diffusion method. To be noted: MTCC 36, 48 h, read-out: DIZ.
Experiment [2] has as its system Saccharomyces cerevisiae. Put plainly: Antifungal activity against Saccharomyces cerevisiae MTCC 36 assessed as growth inhibition at 100 ug/ml after 48 hr by agar cup diffusion method. To be noted: MTCC 36, 48 h, read-out: DIZ.
The next experiment concerns Bacillus subtilis. Put plainly: Antibacterial activity against Bacillus subtilis MTCC 441 assessed as growth inhibition by broth dilution method. Particulars: read-out: MIC. (In general: Dilution methods test growth across graded concentrations, often in twofold steps.)
The subject of experiment [3] is Aspergillus niger. Put plainly: Antifungal activity against Aspergillus niger MTCC 1344 assessed as growth inhibition at 150 ug/ml after 48 hr by agar cup diffusion method. Particulars: MTCC 1344, 48 h, read-out: DIZ.
Another experiment has as its system Staphylococcus aureus. Nature of the experiment: Antibacterial activity against Staphylococcus aureus MTCC 96 assessed as growth inhibition by broth dilution method.
Another experiment concerns Pseudomonas aeruginosa. Nature of the experiment: Antibacterial activity against Pseudomonas aeruginosa MTCC 741 assessed as growth inhibition by broth dilution method.
Experiment [4] deals with Diutina rugosa. Nature of the experiment: Antifungal activity against Candida rugosa NCIM 3462 assessed as growth inhibition at 150 ug/ml after 48 hr by agar cup diffusion method. To be noted: NCIM 3462, 48 h, read-out: DIZ.
For experiment [5], the system named is Aspergillus niger. Nature of the experiment: Antifungal activity against Aspergillus niger MTCC 1344 assessed as growth inhibition at 100 ug/ml after 48 hr by agar cup diffusion method. Particulars: MTCC 1344, 48 h, read-out: DIZ.
In experiment [6] the test system is Candida albicans. Put plainly: Antifungal activity against Candida albicans MTCC 227 assessed as growth inhibition at 100 ug/ml after 48 hr by agar cup diffusion method. Particulars: MTCC 227, 48 h, read-out: DIZ.
In the next experiment the test system is Escherichia coli. Put plainly: Antibacterial activity against Escherichia coli MTCC 443 assessed as growth inhibition by broth dilution method.
The next experiment deals with Klebsiella pneumoniae. Nature of the experiment: Antibacterial activity against Klebsiella pneumoniae assessed as growth inhibition by broth dilution method. To be noted: read-out: MIC.
The test system of experiment [7] is Staphylococcus epidermidis. Put plainly: Antibacterial activity against Staphylococcus epidermidis MTCC 435 assessed as growth inhibition by broth dilution method.
The test system of experiment [8] is Diutina rugosa. Put plainly: Antifungal activity against Candida rugosa NCIM 3462 assessed as growth inhibition at 100 ug/ml after 48 hr by agar cup diffusion method. To be noted: NCIM 3462, 48 h, read-out: DIZ.
For experiment [9], the system named is Candida albicans. Nature of the experiment: Antifungal activity against Candida albicans MTCC 227 assessed as growth inhibition at 150 ug/ml after 48 hr by agar cup diffusion method. Particulars: MTCC 227, 48 h, read-out: DIZ.

Converted amounts (≈) assume the structure as drawn. Bounds are passed on as bounds.

In general, MIC refers to the lowest concentration that inhibits growth of the organism. Regarding `O=C(NN=C1CCCC1)c1snnc1C(F)(F)F`, the figures for the viability at 10 µM in the experiment on MDA-MB-231 and with MCF7 were 84.2% and 97.9%, respectively. The zone of inhibition at 150 µg/mL with Saccharomyces cerevisiae [1], in the experiment with Aspergillus niger [3], in the experiment on Diutina rugosa [4] and in the experiment on Candida albicans [9] was 0 mm in each case. Moreover, the zone of inhibition at 100 µg/mL with Saccharomyces cerevisiae [2], with Aspergillus niger [5], in the experiment with Candida albicans [6] and in the experiment on Diutina rugosa [8] was 0 mm in each case. In addition, the MIC was 150 µg/mL (≈ 539 µM) in the experiment on Bacillus subtilis; 150 µg/mL (≈ 539 µM) in the experiment with Staphylococcus aureus (read-out: MIC); 150 µg/mL (≈ 539 µM) in the experiment on Pseudomonas aeruginosa (read-out: MIC); 150 µg/mL (≈ 539 µM) in the experiment with Escherichia coli (read-out: MIC); 150 µg/mL (≈ 539 µM) in the experiment on Klebsiella pneumoniae; above 150 µg/mL in experiment [7].

Regarding `O=C(N/N=C/c1ccc(F)cc1)c1snnc1C(F)(F)F`, the viability at 10 µM in the experiment on MDA-MB-231 was found to be 102%; with MCF7 it was 99.5%. In addition, the zone of inhibition at 150 µg/mL with Saccharomyces cerevisiae [1], in the experiment on Aspergillus niger [3], in the experiment on Diutina rugosa [4] and in the experiment with Candida albicans [9] was 0 mm in each case. Moreover, the zone of inhibition at 100 µg/mL in the experiment with Saccharomyces cerevisiae [2], in the experiment on Aspergillus niger [5], in the experiment with Candida albicans [6] and in the experiment with Diutina rugosa [8] was 0 mm in each case. The MIC is 150 µg/mL (≈ 471 µM) in the experiment on Bacillus subtilis; above 150 µg/mL with Staphylococcus aureus; 150 µg/mL (≈ 471 µM) with Pseudomonas aeruginosa (read-out: MIC); 150 µg/mL (≈ 471 µM) in the experiment on Escherichia coli (read-out: MIC); 150 µg/mL (≈ 471 µM) in the experiment on Klebsiella pneumoniae; 150 µg/mL (≈ 471 µM) in [7] (read-out: MIC).

As to `O=C(N/N=C/c1cccs1)c1snnc1C(F)(F)F`, the viability at 10 µM with MDA-MB-231 was 91.9%; in the experiment on MCF7, 102%. Moreover, the zone of inhibition at 150 µg/mL in the experiment on Saccharomyces cerevisiae [1], in the experiment with Aspergillus niger [3], in the experiment on Diutina rugosa [4] and in the experiment with Candida albicans [9] was 0 mm in each case. Moreover, the zone of inhibition at 100 µg/mL with Saccharomyces cerevisiae [2], in the experiment on Aspergillus niger [5], in the experiment with Candida albicans [6] and with Diutina rugosa [8] was 0 mm throughout. The MIC in the experiment on Bacillus subtilis is 150 µg/mL (≈ 490 µM); in the experiment with Staphylococcus aureus (read-out: MIC), 150 µg/mL (≈ 490 µM); with Pseudomonas aeruginosa it was above 150 µg/mL; in the experiment with Escherichia coli (read-out: MIC), 150 µg/mL (≈ 490 µM); in the experiment with Klebsiella pneumoniae it was 150 µg/mL (≈ 490 µM); in [7] (read-out: MIC) it was 150 µg/mL (≈ 490 µM).

On to `C/C(=N\NC(=O)c1snnc1C(F)(F)F)c1ccccc1`, for which the results for the viability at 10 µM in the experiment with MDA-MB-231 and in the experiment with MCF7 were 94.5% and 115%, respectively. In addition, the zone of inhibition at 150 µg/mL with Saccharomyces cerevisiae [1], in the experiment with Aspergillus niger [3], with Diutina rugosa [4] and in the experiment with Candida albicans [9] was 0 mm in each case. Moreover, the zone of inhibition at 100 µg/mL with Saccharomyces cerevisiae [2], in the experiment with Aspergillus niger [5], with Candida albicans [6] and in the experiment with Diutina rugosa [8] was 0 mm throughout. Moreover, the MIC with Bacillus subtilis is 150 µg/mL (≈ 477 µM); with Staphylococcus aureus, above 150 µg/mL; in the experiment on Pseudomonas aeruginosa (read-out: MIC), 150 µg/mL (≈ 477 µM); with Escherichia coli, above 150 µg/mL; with Klebsiella pneumoniae, 150 µg/mL (≈ 477 µM); in experiment [7] (read-out: MIC) it was 150 µg/mL (≈ 477 µM).

Consider `COc1ccc(/C=N/NC(=O)c2snnc2C(F)(F)F)cc1`, for which the values for the viability at 10 µM in the experiment on MDA-MB-231 and with MCF7 were 87.3% and 101%, respectively. In addition, the zone of inhibition at 150 µg/mL in the experiment on Saccharomyces cerevisiae [1], in the experiment with Aspergillus niger [3], in the experiment with Diutina rugosa [4] and in the experiment with Candida albicans [9] was 0 mm throughout. In addition, the zone of inhibition at 100 µg/mL in the experiment with Saccharomyces cerevisiae [2], in the experiment with Aspergillus niger [5], in the experiment with Candida albicans [6] and in the experiment with Diutina rugosa [8] was 0 mm in each case. The MIC was 150 µg/mL (≈ 454 µM) in the experiment on Bacillus subtilis; above 150 µg/mL in the experiment with Staphylococcus aureus; 150 µg/mL (≈ 454 µM) with Pseudomonas aeruginosa (read-out: MIC); 150 µg/mL (≈ 454 µM) in the experiment on Escherichia coli (read-out: MIC); 150 µg/mL (≈ 454 µM) in the experiment on Klebsiella pneumoniae; 150 µg/mL (≈ 454 µM) in [7] (read-out: MIC).
